Test results: patent US9908890B2, “Selective inhibitors of constitutive androstane receptor” (ST. JUDE CHILDREN'S RESEARCH HOSPITAL, priority 2014, dated 2018)

Legend:
[1] = biological target: T1, hPXR (Homo sapiens, UniProt O75469); experiment: PXR luciferase assay (HepG2-PXR Clone 1, CYP3A4-luciferase reporter); assay type: cell-based
T1 construct: expressed in transfected cells
T1 sequence (O75469 1-434): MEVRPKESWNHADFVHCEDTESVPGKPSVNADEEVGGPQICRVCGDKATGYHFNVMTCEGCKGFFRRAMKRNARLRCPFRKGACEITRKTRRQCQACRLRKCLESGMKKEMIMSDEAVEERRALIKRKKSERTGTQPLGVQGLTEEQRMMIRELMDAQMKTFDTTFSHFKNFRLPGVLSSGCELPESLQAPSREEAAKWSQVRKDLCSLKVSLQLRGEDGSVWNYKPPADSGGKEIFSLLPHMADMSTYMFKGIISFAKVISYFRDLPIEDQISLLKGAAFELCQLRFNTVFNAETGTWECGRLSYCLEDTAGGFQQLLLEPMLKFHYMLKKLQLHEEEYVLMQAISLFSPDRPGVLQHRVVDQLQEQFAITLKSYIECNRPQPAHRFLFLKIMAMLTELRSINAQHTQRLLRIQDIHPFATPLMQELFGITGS
Procedure: Luciferase activity was measured 24 h after treatment by using SteadyLite™ reagent. […] GraphPad Prism was used to fit the data into a dose-response equation to derive IC50 values. […] The percentage of PXR activation was calculated by setting that of DMSO-treated cells (negative control) to 0%, and that of 5 μM rifampicin-treated cells (positive control) to 100%. HepG2 cells stably expressing hPXR and CYP3A4-luciferase reporter (PXR Clone 1) were treated with indicated compounds for 24 h. Luciferase activity was measured 24 h after treatment by using SteadyLite reagent. The percentage of PXR activation was calculated by setting that of DMSO-treated cells (negative control) to 0%, and that of 5 μM rifampicin-treated cells (positive control) to 100%.
Briefly, HepG2 cells were transiently transfected with plasmids expressing hCAR1, CYP3A4-luc reporter and control plasmid pTK-RL. […] Dual luciferase activity was measured 24 h after treatment using Dual-Glo® luciferase reagent. Renilla luciferase was used to normalize firefly luciferase values and % Luciferase activity was calculated by setting DMSO to 100%. p<0.001, when comparing DMSO to all treatments except 5 μM rifampicin. […] Briefly, HepG2-PXR Clone 1 cells were treated with CINPA1 in a dose-responsive format (40 μM to 2 nM, 1-to-2 dilutions for 10 concentrations) in the presence or absence of 5 μM rifampicin (Rif) for 24 h before luciferase assay using SteadyLite™. % PXR activity was calculated by setting DMSO (negative. control) treated cells to 0% and 5 μM rifampicin (positive. control) treated cells to 100%. GraphPad Prism was used to fit the data into a dose-response stimulation equation to derive IC50 values. […] Briefly, U2OS cells were transiently transfected with plasmids expressing hCAR1, CYP2B6-luc reporter and control plasmid pTK-RL. […] Dual luciferase activity was measured 24 h after treatment. Renilla luciferase was used to normalize firefly luciferase values and % Luciferase activity was calculated by setting DMSO to 100%. *, p<0.0001 comparing CITCO+CINPA1 to CITCO treated cells. […]

[2] = biological target: T2, hCAR1 (Homo sapiens, UniProt Q14994); experiment: CAR-mediated CYP3A4-luciferase assay (HepG2 cells transfected with hCAR1); assay type: cell-based; details: 1 μM or 5 μM CINPA1, 24 h
T2 construct: expressed in transfected cells; host or cells: HepG2 (transient transfection)
T2 sequence (Q14994 1-348 isoform Q14994-2): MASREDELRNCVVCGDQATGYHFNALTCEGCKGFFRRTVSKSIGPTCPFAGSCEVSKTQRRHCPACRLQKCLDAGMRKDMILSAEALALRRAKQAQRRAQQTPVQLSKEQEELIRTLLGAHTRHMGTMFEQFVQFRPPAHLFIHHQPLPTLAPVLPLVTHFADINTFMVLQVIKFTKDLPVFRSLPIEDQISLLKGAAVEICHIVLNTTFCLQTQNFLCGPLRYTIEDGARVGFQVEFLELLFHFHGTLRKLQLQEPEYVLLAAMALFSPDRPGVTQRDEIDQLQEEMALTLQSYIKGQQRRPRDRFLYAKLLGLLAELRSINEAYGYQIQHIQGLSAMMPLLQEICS
Procedure: Briefly, HepG2 cells were transiently transfected with plasmids expressing hCAR1, CYP3A4-luc reporter and control plasmid pTK-RL. […] Dual luciferase activity was measured 24 h after treatment using Dual-Glo® luciferase reagent. Renilla luciferase was used to normalize firefly luciferase values and % Luciferase activity was calculated by setting DMSO to 100%. p<0.001, when comparing DMSO to all treatments except 5 μM rifampicin. […] Briefly, HepG2-PXR Clone 1 cells were treated with CINPA1 in a dose-responsive format (40 μM to 2 nM, 1-to-2 dilutions for 10 concentrations) in the presence or absence of 5 μM rifampicin (Rif) for 24 h before luciferase assay using SteadyLite™. % PXR activity was calculated by setting DMSO (negative. control) treated cells to 0% and 5 μM rifampicin (positive. control) treated cells to 100%. GraphPad Prism was used to fit the data into a dose-response stimulation equation to derive IC50 values. […] Briefly, U2OS cells were transiently transfected with plasmids expressing hCAR1, CYP2B6-luc reporter and control plasmid pTK-RL. […] Dual luciferase activity was measured 24 h after treatment. Renilla luciferase was used to normalize firefly luciferase values and % Luciferase activity was calculated by setting DMSO to 100%. *, p<0.0001 comparing CITCO+CINPA1 to CITCO treated cells.

For `CCOC(=O)Nc1ccc2c(c1)N(C(=O)CN(CC)CC)c1ccccc1CC2` [CINPA1], the “inhibition of PXR-mediated gene expression” value ([1]; 18 μM CINPA1 with 5 μM rifampicin, 24 h) was “weakly inhibited PXR-mediated gene expression”, the “agonistic effect on PXR-regulated gene expression” value ([1]; 40 μM) was “did not exhibit any agonistic effect” and the IC50 ([1]; in the presence of 5 μM rifampicin, read-out: IC50, antagonist of PXR) was 6.6 µM. The “CAR-mediated CYP3A4-luciferase activity” value [2] was “also seen in CAR-mediated CYP3A4-luciferase activity”.
